Measurements taken from ChEMBL document CHEMBL5316266, “Ligand-Based Design on the Dog-Bone-Shaped BIBR1532 Pharmacophoric Features and Synthesis of Novel Analogues as Promising Telomerase Inhibitors with In Vitro and In Vivo Evaluations” (J Med Chem, 2023).
≈ marks a conversion by molar mass, not a printed value. Each block holds one compound with its values, some of them ahead of it.

Key:
[1] = biological target: Telomerase reverse transcriptase (Homo sapiens) (UniProt O14746); experiment: Inhibition of telomerase (unknown origin) by qRT-PCR analysis relative to control; parameters: concentration or dose not given beside the values; conditions: concentration not given here
[2] = system: Ehrlich; experiment: Anticancer activity against mouse solid Ehrlich carcinoma cells implanted in Swiss albino mouse assessed as decrease in serum ALT level at 5 mg/kg administered thrice per week for 2 weeks starting from day 7 post tumor implantation by biochemical assay relative to control; type: functional; parameters: scale not given: the % may be the effect or the level left
[3] = system: Ehrlich; experiment: (§1) Anticancer activity against mouse solid Ehrlich carcinoma cells implanted in Swiss albino mouse assessed as increase in neutrophil count at 5 mg/kg administered thrice per week for 2 weeks starting from day 7 post tumor implantation by hematological assay (reference value: 55.43 +/- 8.44 %); type: functional
[4] = system: Ehrlich; experiment: (§2) Anticancer activity against mouse solid Ehrlich carcinoma cells implanted in Swiss albino mouse assessed as decrease in serum albumin level at 5 mg/kg administered thrice per week for 2 weeks by biochemical assay tarting from day 7 post tumor implantation by biochemical assay relative to control; type: functional; parameters: scale not given: the % may be the effect or the level left
[5] = system: Ehrlich; experiment: Anticancer activity against mouse solid Ehrlich carcinoma cells implanted in Swiss albino mouse assessed as increase in monocyte count at 5 mg/kg administered thrice per week for 2 weeks starting from day 7 post tumor implantation by hematological assay (reference value: 7.42 +/- 0.52 %); type: functional
[6] = Toxicity in Swiss albino mouse implanted with mouse solid Ehrlich carcinoma assessed as confluent necrosis in liver at 5 mg/kg administered thrice per week for 2 weeks starting from day 7 post tumor implantation by H and E staining based histopathological analysis; type: organism-based; conditions: in vivo, 336 h
[7] = Toxicity in Swiss albino mouse implanted with mouse solid Ehrlich carcinoma assessed as mesangial expansion at 5 mg/kg administered thrice per week for 2 weeks starting from day 7 post tumor implantation by H and E staining based histopathological analysis; type: organism-based; conditions: in vivo, 336 h
[8] = Toxicity in Swiss albino mouse implanted with mouse solid Ehrlich carcinoma assessed as portal tract inflammation in liver at 5 mg/kg administered thrice per week for 2 weeks starting from day 7 post tumor implantation by H and E staining based histopathological analysis; type: organism-based; conditions: in vivo, 336 h
[9] = system: Ehrlich; experiment: Anticancer activity against mouse solid Ehrlich carcinoma cells implanted in Swiss albino mouse assessed as necrotic cells at 5 mg/kg administered thrice per week for 2 weeks starting from day 7 post tumor implantation by H and E staining based histopathological analysis relative to control; type: functional
[10] = Toxicity in Swiss albino mouse implanted with mouse solid Ehrlich carcinoma assessed as hydropic degeneration of hepatocytes at 5 mg/kg administered thrice per week for 2 weeks starting from day 7 post tumor implantation by H and E staining based histopathological analysis; type: organism-based; conditions: in vivo, 336 h
[11] = system: Ehrlich; experiment: Anticancer activity against mouse solid Ehrlich carcinoma implanted in Swiss albino mouse assessed as increase in tumor inhibition ratio at 5 mg/kg administered thrice per week for 2 weeks starting from day 7 post tumor implantation relative to control; type: functional; parameters: scale not given: the % may be the effect or the level left
[12] = system: Ehrlich; experiment: Anticancer activity against mouse solid Ehrlich carcinoma cells implanted in Swiss albino mouse assessed as increase in lymphocyte count at 5 mg/kg administered thrice per week for 2 weeks starting from day 7 post tumor implantation by hematological assay (reference value: 35.57 +/- 8.34 %); type: functional
[13] = Toxicity in Swiss albino mouse implanted with mouse solid Ehrlich carcinoma assessed as tubular injury at 5 mg/kg administered thrice per week for 2 weeks starting from day 7 post tumor implantation by H and E staining based histopathological analysis; type: organism-based; conditions: in vivo, 336 h
[14] = system: Ehrlich; experiment: as §2, with “total protein” for “albumin”; type: functional; parameters: scale not given: the % may be the effect or the level left
[15] = system: Ehrlich; experiment: Anticancer activity against mouse solid Ehrlich carcinoma cells implanted in Swiss albino mouse assessed as increase in hemoglobin level at 5 mg/kg administered thrice per week for 2 weeks starting from day 7 post tumor implantation by hematological assay (reference value: 4.67 +/- 0.19 g/dl); type: functional
[16] = system: Ehrlich; experiment: Anticancer activity against mouse solid Ehrlich carcinoma cells implanted in Swiss albino mouse assessed as decrease in serum AST level at 5 mg/kg administered thrice per week for 2 weeks starting from day 7 post tumor implantation by biochemical assay relative to control; type: functional; parameters: scale not given: the % may be the effect or the level left
[17] = system: Ehrlich; experiment: as §1, with “RBC” for “neutrophil”, “count measured per million cells” for “count”, “2.93” for “55.43”, “0.18 10^6/ml)” for “8.44 %)”; type: functional
[18] = system: MCF7; experiment: Cell cycle arrest in human MCF7 cells assessed as accumulation of cells at S phase at 3.1 uM incubated for 48 hrs by PI staining based flow cytometry (reference value: 28.71 %); type: functional
[19] = system: MCF7; experiment: Induction of apoptosis in human MCF7 cells assessed as total apoptotic cells incubated for 48 hrs by Annexin-V/FITC staining based flow cytometry (reference value: 1.73 %); type: functional
[20] = system: Ehrlich; experiment: Anticancer activity against mouse solid Ehrlich carcinoma implanted in Swiss albino mouse assessed as reduction in tumor volume at 5 mg/kg administered thrice per week for 2 weeks starting from day 7 post tumor implantation relative to control; type: functional; parameters: scale not given: the % may be the effect or the level left
[21] = system: Ehrlich; experiment: Anticancer activity against mouse solid Ehrlich carcinoma implanted in Swiss albino mouse assessed as reduction in tumor weight at 5 mg/kg administered thrice per week for 2 weeks starting from day 7 post tumor implantation relative to DOX; type: functional; parameters: scale not given: the % may be the effect or the level left
[22] = system: Ehrlich; experiment: Anticancer activity against mouse solid Ehrlich carcinoma implanted in Swiss albino mouse assessed as reduction in tumor weight at 5 mg/kg administered thrice per week for 2 weeks starting from day 7 post tumor implantation relative to control; type: functional; parameters: scale not given: the % may be the effect or the level left
[23] = system: Ehrlich; experiment: Anticancer activity against mouse solid Ehrlich carcinoma implanted in Swiss albino mouse assessed as reduction in tumor volume at 5 mg/kg administered thrice per week for 2 weeks starting from day 7 post tumor implantation relative to DOX; type: functional; parameters: scale not given: the % may be the effect or the level left
[24] = system: MCF7; experiment: Cytotoxicity against human MCF7 cells assessed as inhibition of cell growth incubated for 72 hrs by MTT assay; type: functional, cell-based; conditions: MCF7, 72 h
[25] = system: A549; experiment: Cytotoxicity against human A549 cells assessed as inhibition of cell growth incubated for 72 hrs by MTT assay; type: functional, cell-based; conditions: A549, 72 h

Chain of Telomerase reverse transcriptase (Homo sapiens) (O14746 whole entry): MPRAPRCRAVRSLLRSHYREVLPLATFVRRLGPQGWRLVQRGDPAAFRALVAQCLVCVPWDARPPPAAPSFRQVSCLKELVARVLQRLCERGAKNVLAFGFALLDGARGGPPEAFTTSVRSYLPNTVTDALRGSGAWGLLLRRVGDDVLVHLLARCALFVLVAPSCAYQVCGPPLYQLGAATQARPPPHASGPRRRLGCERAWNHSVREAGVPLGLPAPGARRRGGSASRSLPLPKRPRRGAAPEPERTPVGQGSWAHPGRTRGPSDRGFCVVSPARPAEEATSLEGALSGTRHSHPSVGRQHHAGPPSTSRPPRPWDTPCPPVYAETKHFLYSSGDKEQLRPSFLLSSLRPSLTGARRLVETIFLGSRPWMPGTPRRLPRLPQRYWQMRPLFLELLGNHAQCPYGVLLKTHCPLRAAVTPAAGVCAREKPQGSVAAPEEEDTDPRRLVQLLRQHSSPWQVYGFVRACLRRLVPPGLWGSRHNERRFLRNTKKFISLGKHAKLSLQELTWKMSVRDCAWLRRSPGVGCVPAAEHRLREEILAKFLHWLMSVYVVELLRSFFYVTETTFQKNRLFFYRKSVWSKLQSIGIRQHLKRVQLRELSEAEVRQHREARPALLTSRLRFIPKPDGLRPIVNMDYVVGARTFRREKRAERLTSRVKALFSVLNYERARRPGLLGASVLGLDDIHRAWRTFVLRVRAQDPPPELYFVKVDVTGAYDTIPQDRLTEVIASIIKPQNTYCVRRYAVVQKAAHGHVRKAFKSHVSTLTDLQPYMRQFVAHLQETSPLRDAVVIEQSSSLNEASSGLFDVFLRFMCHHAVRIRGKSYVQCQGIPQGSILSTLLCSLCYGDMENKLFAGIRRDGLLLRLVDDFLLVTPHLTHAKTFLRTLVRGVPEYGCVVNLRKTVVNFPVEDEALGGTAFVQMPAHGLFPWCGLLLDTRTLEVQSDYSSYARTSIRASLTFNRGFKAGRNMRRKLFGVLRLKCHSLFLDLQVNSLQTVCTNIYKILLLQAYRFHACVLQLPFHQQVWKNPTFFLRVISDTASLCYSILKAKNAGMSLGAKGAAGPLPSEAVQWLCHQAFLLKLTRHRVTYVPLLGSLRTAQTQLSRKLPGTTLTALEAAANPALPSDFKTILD

- inhibition [1]: 10.8%
SMILES: N#Cc1c(NC(=O)CSc2ccc(-c3ccccc3)nn2)sc2c1CCCC2

- inhibition [1]: 10.8%
SMILES: N#Cc1c(NC(=O)CSc2ccc(-c3ccccc3)nn2)sc2c1CCC2

- inhibition [1]: 10.8%
SMILES: N#Cc1c(NC(=O)CSc2ccc(-c3ccc(Cl)cc3)nn2)sc2c1CCC2

SMILES: COc1cccc2c1C(=O)c1c(O)c3c(c(O)c1C2=O)C[C@@](O)(C(=O)CO)C[C@@H]3O[C@H]1C[C@H](N)[C@H](O)[C@H](C)O1 [DOXORUBICIN]
- Activity [2]: 39.16%
- Activity [3]: 54.14%
- Activity [4]: 35.71%
- Activity [5]: 8.42%
- Activity [6]: Toxic
- Activity [7]: Toxic
- Activity [8]: Non-Toxic
- Activity [9]: >90%
- Activity [10]: Toxic
- Activity [11]: 60.4%
- Activity [12]: 36.29%
- Activity [13]: Toxic
- Activity [14]: 48.4%
- Activity [15]: 7.34 g/dL
- Activity [16]: 23.43%
- Activity [17]: 4.94 10^6/ml

- inhibition [1]: 10.8%
SMILES: N#Cc1c(NC(=O)CSc2ccc(-c3ccc(Cl)cc3)nn2)sc2c1CCCC2

- inhibition [1]: 10.8%
SMILES: COc1ccc(-c2ccc(SCC(=O)Nc3sc4c(c3C#N)CCC4)nn2)cc1

- inhibition [1]: 10.8%
SMILES: COc1ccc(-c2ccc(SCC(=O)Nc3sc4c(c3C#N)CCCC4)nn2)cc1

SMILES: Cc1ccc(-c2ccc(SCC(=O)Nc3sc4c(c3C#N)CCC4)nn2)cc1
- Activity [18]: 42.02%
- Activity [2]: 36.12%
- Activity [4]: 28.31%
- Activity [19]: 42.51%
- Activity [20]: 62.12%
- Activity [5]: 9.72%
- Activity [6]: Non-Toxic
- Activity [7]: Toxic
- Activity [21]: 8.48%
- Activity [22]: 74.34%
- Activity [8]: Toxic
- Activity [9]: >90%
- Activity [10]: Toxic
- Activity [11]: 62.12%
- Activity [12]: 39.14%
- Activity [23]: 4.3%
- Activity [13]: Toxic
- IC50 [24]: 9.47 µg/mL (≈ 23.3 µM)
- IC50 [25]: 17.1 µg/mL (≈ 42 µM)
- Activity [14]: 55.54%
- Activity [15]: 6.74 g/dL
- Activity [16]: 29.77%
- Activity [17]: 4.53 10^6/ml

- inhibition [1]: 10.8%
SMILES: N#Cc1c(NC(=O)CSc2ccc(-c3ccc(Br)cc3)nn2)sc2c1CCC2

- inhibition [1]: 10.8%
SMILES: N#Cc1c(NC(=O)CSc2ccc(-c3ccc(Br)cc3)nn2)sc2c1CCCC2

- inhibition [1]: 10.8%
SMILES: N#Cc1c(NC(=O)CSc2ccc(-c3ccc(F)cc3)nn2)sc2c1CCC2

- inhibition [1]: 10.8%
SMILES: N#Cc1c(NC(=O)CSc2ccc(-c3ccc(F)cc3)nn2)sc2c1CCCC2

- inhibition [1]: 49.1%
SMILES: Cc1ccc(-c2ccc(SCC(=O)Nc3sc4c(c3C#N)CCCC4)nn2)cc1
- IC50 [24]: 34.5 µg/mL (≈ 82.1 µM)
- IC50 [25]: 63.8 µg/mL (≈ 152 µM)
